Data taken from US20030134859A1 (SANKYO COMPANY, LIMITED, priority 2000, published 2003).

Experiments:
human PPAR γ 2 [1] = target: T1, human PPAR γ 2 (Homo sapiens, UniProt P37231); test: PPAR γ transcriptional activity, luciferase reporter, test compound alone; format: cell-based; settings: concentration indicating Emax/2, MG63 cells transfected with pSG5-hPPARg and pGV-P2-PPRE, 24 hr
T1 construct: expressed in transfected cells; host or cells: human osteosarcoma MG63, transiently co-transfected with pSG5-hPPARg and the reporter pGV-P2-PPRE
T1 sequence (P37231 1-505): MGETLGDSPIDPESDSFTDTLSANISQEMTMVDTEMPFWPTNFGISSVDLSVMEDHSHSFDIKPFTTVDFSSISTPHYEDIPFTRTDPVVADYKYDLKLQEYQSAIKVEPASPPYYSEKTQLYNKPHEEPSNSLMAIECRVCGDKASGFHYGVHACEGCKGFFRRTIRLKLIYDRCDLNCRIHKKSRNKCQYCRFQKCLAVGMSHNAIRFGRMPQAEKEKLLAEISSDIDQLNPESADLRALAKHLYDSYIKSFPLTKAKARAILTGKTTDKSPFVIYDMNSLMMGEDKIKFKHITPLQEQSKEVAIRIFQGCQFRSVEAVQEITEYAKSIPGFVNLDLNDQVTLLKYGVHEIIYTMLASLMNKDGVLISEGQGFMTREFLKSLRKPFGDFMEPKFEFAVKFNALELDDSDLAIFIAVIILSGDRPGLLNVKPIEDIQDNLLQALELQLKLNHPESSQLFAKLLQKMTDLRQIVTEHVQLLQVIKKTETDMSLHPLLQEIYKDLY
Summary of the method: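 Human osteosarcoma MG63 cells transiently co-transfected with human PPARγ2 expression plasmid and PPRE-luciferase reporter (rat acyl-CoA oxidase promoter element), then exposed 24 h to test compound alone. Luciferase luminescence gave dose-response curves; EC50 is the concentration giving half of the compound's maximal activity (Emax).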

human PPAR γ 2 [2] = target: T1, human PPAR γ 2; test: Inhibitory activity against PPAR γ transcription in the presence of agonist compound A, luciferase reporter; format: cell-based; settings: in the presence of 10 nM compound A (agonist); MG63 cells transfected with pSG5-hPPARg and pGV-P2-PPRE; 24 hr

Compound | EC50 (human PPAR γ 2 [1]) [nM] | IC50 (human PPAR γ 2 [2]) [nM]
O=C(Nc1ccc(S(=O)(=O)Nc2ccc(N3CCOCC3)cc2)cc1)c1cc([N+](=O)[O-])ccc1Cl [Example 179, N-[4-[4-(Morpholin-4-yl)phenyl]aminosulfonyl]phenyl-(2-chloro-5-nitrophenyl)carboxamide] | 780 | 56
CCCNc1ccc(NC(=O)c2cc([N+](=O)[O-])ccc2Cl)cc1 [Example 181, N-[4-(N-Propylamino)phenyl]-(2-chloro-5-nitrophenyl)carboxamide] | 5.6 | 20
CCCN(CC)c1ccc(NC(=O)c2cc([N+](=O)[O-])ccc2Cl)cc1 [Example 189, N-[4-(N-Ethyl-N-propylamino)phenyl]-(2-chloro-5-nitrophenyl)carboxamide] | 0.7 | 3.6
CCN(c1ccc(NS(=O)(=O)c2ccc(NC(=O)c3cc([N+](=O)[O-])ccc3Cl)cc2)cc1)C(C)C [Example 232, N-[[4-[4-(N-Ethyl-N-isopropylamino)phenyl]aminosulfonyl]phenyl]-(2-chloro-5-nitrophenyl)carboxamide] | 610 | 56
N-[4-(Pyrrolidinylsulfonyl)phenyl]-(2-chloro-5-nitrophenyl)carboxamide [Example 152] | 8.7 | 42

Continued by falling EC50 (human PPAR γ 2 [1]), values first:

EC50 (human PPAR γ 2 [1]) [nM] | IC50 (human PPAR γ 2 [2]) [nM] | Compound
160 | 46 | N-(Ethoxyphenyl)-(2-chloro-5-nitrophenyl)carboxamide [Example 229]
120 | 130 | O=C(Nc1ccc(NC(=S)Nc2cccnc2)cc1)c1cc([N+](=O)[O-])ccc1Cl [Example 257, N-[4-[(Pyridin-3-yl)aminothiocarbonylamino]phenyl]-(2-chloro-5-nitrophenyl)carboxamide]
44 | 52 | CC(O)c1cccc(NC(=O)c2cc([N+](=O)[O-])ccc2Cl)c1 (centres unmarked) [Example 239, N-[3-(1-Hydroxyethyl)phenyl]-(2-chloro-5-nitrophenyl)carboxamide]
4.2 | 30 | O=C(Nc1cccc(O)c1)c1cc([N+](=O)[O-])ccc1Cl [Example 191, N-(3-Hydroxyphenyl)-(2-chloro-5-nitrophenyl)carboxamide]
0.7 | 31 | O=C(Nc1ccc(NC(=S)Nc2ccncc2)cc1)c1cc([N+](=O)[O-])ccc1Cl [Example 259, N-[4-[(Pyridin-4-yl)aminothiocarbonylamino]phenyl]-(2-chloro-5-nitrophenyl)carboxamide]
